These are literature values, as cited in EP4484428A1, “CUCURBITURIL DERIVATIVES FOR RADIOLABELING, PROCESSES OF PRODUCTION AND USES THEREOF” (Université de Bourgogne, priority 2023, dated 2025).

The test system of this series is (strept)avidin. The conditions noted are these: biotin-(strept)avidin pair, association constant.

Turning to `O=C(O)CCCC[C@@H]1SC[C@@H]2NC(=O)N[C@@H]21` [biotin], the “affinity (K)” value was 10^15 M^-1.
